The source of these data is the supplement of paper PMC10307832.

What all share (experiment): relative viability (nuclei count vs DMSO), 5 days (fraction); higher = more cells survive
Compound in the assay “Carfilzomib + Alpelisib”: CC(C)C[C@H](NC(=O)[C@H](CCc1ccccc1)NC(=O)CN1CCOCC1)C(=O)N[C@@H](Cc1ccccc1)C(=O)N[C@@H](CC(C)C)C(=O)[C@@]1(C)CO1 [Carfilzomib] + Cc1nc(NC(=O)N2CCC[C@H]2C(N)=O)sc1-c1ccnc(C(C)(C)C(F)(F)F)c1 [Alpelisib] (partner 2 µM)
In outline:
(§1)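 Lung cancer cell lines were pin-tool dosed in 1536-well plates on the day after seeding, with either a lone drug or a fixed anchor-drug dose plus five library-drug doses (not always all listed) in √10 steps. Nuclei were counted on 4× images after 5 days. Relative viability is the ratio of treated-well to vehicle-well nuclei counts, with each value a median of duplicate plates.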

Compound in the assay “Carfilzomib + Phenformin”: CC(C)C[C@H](NC(=O)[C@H](CCc1ccccc1)NC(=O)CN1CCOCC1)C(=O)N[C@@H](Cc1ccccc1)C(=O)N[C@@H](CC(C)C)C(=O)[C@@]1(C)CO1 [Carfilzomib] + N=C(N)NC(=N)NCCc1ccccc1 [Phenformin] (partner 250 µM)
In outline:
as §1

Compound in the assay “Crizotinib + Palbociclib”: C[C@@H](Oc1cc(-c2cnn(C3CCNCC3)c2)cnc1N)c1c(Cl)ccc(F)c1Cl [Crizotinib] + CC(=O)c1c(C)c2cnc(Nc3ccc(N4CCNCC4)cn3)nc2n(C2CCCC2)c1=O [Palbociclib] (partner 0.5 µM)
Summed up:
as §1

Compound in the assay “Olaparib + Alpelisib”: O=C(c1cc(Cc2n[nH]c(=O)c3ccccc23)ccc1F)N1CCN(C(=O)C2CC2)CC1 [Olaparib] + Cc1nc(NC(=O)N2CCC[C@H]2C(N)=O)sc1-c1ccnc(C(C)(C)C(F)(F)F)c1 [Alpelisib] (partner 2 µM)
In outline:
as §1

On to HOP-62, for which the relative viability in the assay with Carfilzomib + Alpelisib (first compound 0.001 µM) stood at 0.935; with Carfilzomib + Alpelisib (first compound 0.003162 µM), 1.12; in the assay with Carfilzomib + Alpelisib (first compound 0.01 µM), 0.986; with Carfilzomib + Alpelisib (first compound 0.03162 µM) it was 0.118; with Carfilzomib + Alpelisib (first compound 0.1 µM), 0.0839; with Carfilzomib + Phenformin (first compound 0.001 µM), 0.749. Besides, the relative viability came out at 0.694 in the assay with Carfilzomib + Phenformin (first compound 0.003162 µM); 0.415 with Carfilzomib + Phenformin (first compound 0.01 µM); 0.232 in the assay with Carfilzomib + Phenformin (first compound 0.03162 µM); 0.0898 in the assay with Carfilzomib + Phenformin (first compound 0.1 µM); 0.444 with Crizotinib + Palbociclib (first compound 0.01 µM); 0.416 with Crizotinib + Palbociclib (first compound 0.03162 µM). In addition, the relative viability with Crizotinib + Palbociclib (first compound 0.1 µM) is 0.412; with Crizotinib + Palbociclib (first compound 0.3162 µM), 0.396; with Crizotinib + Palbociclib (first compound 1 µM) it was 0.495; in the assay with Olaparib + Alpelisib (first compound 0.08 µM), 1.25; with Olaparib + Alpelisib (first compound 0.253 µM), 0.774; in the assay with Olaparib + Alpelisib (first compound 2.53 µM), 0.754. Moreover, in the assay with Olaparib + Alpelisib (first compound 8 µM), the relative viability turned out to be 0.782.

As for NCI-H1734, the relative viability was determined as 0.695 with Carfilzomib + Alpelisib (first compound 0.001 µM); 0.832 with Carfilzomib + Alpelisib (first compound 0.003162 µM); 0.69 with Carfilzomib + Alpelisib (first compound 0.01 µM); 0.367 in the assay with Carfilzomib + Alpelisib (first compound 0.03162 µM); 0.165 in the assay with Carfilzomib + Alpelisib (first compound 0.1 µM); 0.375 with Carfilzomib + Phenformin (first compound 0.001 µM). Also, the relative viability turned out to be 0.404 in the assay with Carfilzomib + Phenformin (first compound 0.003162 µM); 0.331 with Carfilzomib + Phenformin (first compound 0.01 µM); 0.18 with Carfilzomib + Phenformin (first compound 0.03162 µM); 0.104 with Carfilzomib + Phenformin (first compound 0.1 µM); 0.346 with Crizotinib + Palbociclib (first compound 0.01 µM); 0.327 with Crizotinib + Palbociclib (first compound 0.03162 µM). Further, the relative viability came to 0.327 in the assay with Crizotinib + Palbociclib (first compound 0.1 µM); 0.341 with Crizotinib + Palbociclib (first compound 1 µM); 0.669 with Olaparib + Alpelisib (first compound 0.08 µM); 0.612 in the assay with Olaparib + Alpelisib (first compound 0.253 µM); 0.623 in the assay with Olaparib + Alpelisib (first compound 2.53 µM); 0.519 with Olaparib + Alpelisib (first compound 8 µM).

On to NCI-H2405, for which the relative viability stood at 1.13 with Carfilzomib + Alpelisib (first compound 0.003162 µM); 0.777 with Carfilzomib + Alpelisib (first compound 0.01 µM); 0.312 with Carfilzomib + Alpelisib (first compound 0.03162 µM); 0.168 with Carfilzomib + Alpelisib (first compound 0.1 µM); 0.432 with Carfilzomib + Phenformin (first compound 0.003162 µM); 0.395 in the assay with Carfilzomib + Phenformin (first compound 0.01 µM). Moreover, the relative viability in the assay with Carfilzomib + Phenformin (first compound 0.03162 µM) was 0.298; with Carfilzomib + Phenformin (first compound 0.1 µM), 0.129; in the assay with Crizotinib + Palbociclib (first compound 0.01 µM), 0.479; with Crizotinib + Palbociclib (first compound 0.03162 µM), 0.515; with Crizotinib + Palbociclib (first compound 0.1 µM), 0.509; with Crizotinib + Palbociclib (first compound 0.3162 µM), 0.56. The relative viability was 0.501 with Crizotinib + Palbociclib (first compound 1 µM); 1.01 with Olaparib + Alpelisib (first compound 0.08 µM); 0.816 in the assay with Olaparib + Alpelisib (first compound 0.253 µM); 0.728 with Olaparib + Alpelisib (first compound 2.53 µM); 0.73 with Olaparib + Alpelisib (first compound 8 µM).

As to NCI-H727, the relative viability with Carfilzomib + Alpelisib (first compound 0.001 µM) turned out to be 0.683; in the assay with Carfilzomib + Alpelisib (first compound 0.003162 µM), 0.542; with Carfilzomib + Alpelisib (first compound 0.01 µM), 0.655; with Carfilzomib + Alpelisib (first compound 0.03162 µM), 0.421; with Carfilzomib + Alpelisib (first compound 0.1 µM), 0.0733; with Carfilzomib + Phenformin (first compound 0.001 µM), 0.559. Besides, the relative viability with Carfilzomib + Phenformin (first compound 0.003162 µM) turned out to be 0.626; in the assay with Carfilzomib + Phenformin (first compound 0.01 µM), 0.573; with Carfilzomib + Phenformin (first compound 0.03162 µM) it was 0.256; with Carfilzomib + Phenformin (first compound 0.1 µM) it was 0.182; in the assay with Crizotinib + Palbociclib (first compound 0.01 µM), 0.703; in the assay with Crizotinib + Palbociclib (first compound 0.03162 µM), 0.621. For the same cell line, the relative viability with Crizotinib + Palbociclib (first compound 0.1 µM) worked out at 0.655; in the assay with Crizotinib + Palbociclib (first compound 0.3162 µM), 0.639; with Crizotinib + Palbociclib (first compound 1 µM), 0.595; with Olaparib + Alpelisib (first compound 0.08 µM), 0.607; in the assay with Olaparib + Alpelisib (first compound 0.253 µM), 0.527; in the assay with Olaparib + Alpelisib (first compound 2.53 µM) it was 0.597. In addition, the relative viability in the assay with Olaparib + Alpelisib (first compound 8 µM) is 0.332.

On to SW 1573, for which the relative viability with Carfilzomib + Alpelisib (first compound 0.001 µM) came to 0.731; with Carfilzomib + Alpelisib (first compound 0.003162 µM), 0.835; with Carfilzomib + Alpelisib (first compound 0.01 µM), 0.642; in the assay with Carfilzomib + Alpelisib (first compound 0.03162 µM), 0.19; with Carfilzomib + Alpelisib (first compound 0.1 µM) it was 0.096; in the assay with Carfilzomib + Phenformin (first compound 0.001 µM), 0.341. The relative viability with Carfilzomib + Phenformin (first compound 0.003162 µM) was 0.43; with Carfilzomib + Phenformin (first compound 0.01 µM) it was 0.251; in the assay with Carfilzomib + Phenformin (first compound 0.03162 µM), 0.0664; with Carfilzomib + Phenformin (first compound 0.1 µM), 0.0618; with Crizotinib + Palbociclib (first compound 0.01 µM), 0.373; in the assay with Crizotinib + Palbociclib (first compound 0.03162 µM), 0.368. For the same cell line, the relative viability in the assay with Crizotinib + Palbociclib (first compound 0.1 µM) came out at 0.39; with Crizotinib + Palbociclib (first compound 0.3162 µM) it was 0.417; in the assay with Crizotinib + Palbociclib (first compound 1 µM) it was 0.411; with Olaparib + Alpelisib (first compound 0.08 µM) it was 0.715; with Olaparib + Alpelisib (first compound 0.253 µM) it was 0.667; with Olaparib + Alpelisib (first compound 2.53 µM), 0.627. The relative viability with Olaparib + Alpelisib (first compound 8 µM) came out at 0.471.

On to HCC-44, for which the relative viability with Carfilzomib + Alpelisib (first compound 0.001 µM) turned out to be 0.786; with Carfilzomib + Alpelisib (first compound 0.003162 µM), 0.785; with Carfilzomib + Alpelisib (first compound 0.01 µM), 0.861; in the assay with Carfilzomib + Alpelisib (first compound 0.03162 µM), 0.705; in the assay with Carfilzomib + Alpelisib (first compound 0.1 µM), 0.134; with Carfilzomib + Phenformin (first compound 0.001 µM), 0.169. Also, the relative viability with Carfilzomib + Phenformin (first compound 0.003162 µM) is 0.289; in the assay with Carfilzomib + Phenformin (first compound 0.01 µM), 0.145; in the assay with Carfilzomib + Phenformin (first compound 0.03162 µM), 0.107; in the assay with Carfilzomib + Phenformin (first compound 0.1 µM), 0.122; with Crizotinib + Palbociclib (first compound 0.01 µM), 0.939; with Crizotinib + Palbociclib (first compound 0.03162 µM), 0.964. Moreover, the relative viability with Crizotinib + Palbociclib (first compound 0.1 µM) worked out at 1.01; in the assay with Crizotinib + Palbociclib (first compound 0.3162 µM), 0.94; with Crizotinib + Palbociclib (first compound 1 µM), 0.969; in the assay with Olaparib + Alpelisib (first compound 0.08 µM), 0.89; in the assay with Olaparib + Alpelisib (first compound 0.253 µM), 0.721; in the assay with Olaparib + Alpelisib (first compound 2.53 µM), 0.914. Further, the relative viability with Olaparib + Alpelisib (first compound 8 µM) turned out to be 0.839.

In the case of A-427, the relative viability stood at 1.07 with Carfilzomib + Alpelisib (first compound 0.001 µM); 1.07 with Carfilzomib + Alpelisib (first compound 0.003162 µM); 1.06 with Carfilzomib + Alpelisib (first compound 0.01 µM); 0.699 with Carfilzomib + Alpelisib (first compound 0.03162 µM); 0.1 with Carfilzomib + Alpelisib (first compound 0.1 µM); 0.25 with Carfilzomib + Phenformin (first compound 0.001 µM). Besides, the relative viability in the assay with Carfilzomib + Phenformin (first compound 0.003162 µM) was determined as 0.464; with Carfilzomib + Phenformin (first compound 0.01 µM) it was 0.381; with Carfilzomib + Phenformin (first compound 0.03162 µM), 0.116; with Carfilzomib + Phenformin (first compound 0.1 µM), 0.133; in the assay with Crizotinib + Palbociclib (first compound 0.01 µM), 0.486; in the assay with Crizotinib + Palbociclib (first compound 0.03162 µM), 0.53. Besides, the relative viability was found to be 0.496 in the assay with Crizotinib + Palbociclib (first compound 0.1 µM); 0.558 with Crizotinib + Palbociclib (first compound 1 µM); 1.14 in the assay with Olaparib + Alpelisib (first compound 0.08 µM); 1.06 with Olaparib + Alpelisib (first compound 0.253 µM); 0.855 with Olaparib + Alpelisib (first compound 2.53 µM); 0.809 with Olaparib + Alpelisib (first compound 8 µM).
